The test system of assay [1] is Helicobacter pylori (ATCC 43504). The assay can be described thus: Anti-microbial test: MIC by agar dilution method. It counts as cell-based. The settings on record: ATCC43504, Columbia agar + 7% rabbit blood, 35° C., 72 hours, microaerophilic, highest concentration 300 μg/ml, read-out: Minimum inhibitory concentration (MIC). On the procedure: Minimum inhibitory concentration (MIC) of sample on Helicobacter pylori was determined by the agar dilution method [Malanosk G. J. et al. Effect of pH variation on the susceptibility of Helicobacter pylori to three marcolide antimicrobial agents and temafloxacin. Eur. J. Clin. Microbial Infect Dis. 12: pp. 131-133, 1993.]. The test substance was dissolved and serially diluted in DMSO to desired stock concentrations. For each concentration tested, a 0.01 ml aliquot is added to a 48-well plate containing 0.99 ml of Columbia agar base (Oxoid, England) supplemented 7% defibrinated rabbit blood. The inoculum of Helicobacter pylori (ATCC 43504) is prepared by suspending in brain heart infusion broth to a density of 5×10^5 CFU/ml. The final maximal concentration of DMSO is 1% and the initial test substance concentration is 300 μg/ml. The plates are incubated at 35° C. for 72 hours in the microaerophilic condition (Mixed gas N2 85%, CO2 10% and O2 5%) and then visually examined and scored positive (+) for inhibition of the colonies growth or negative (−) for no effect upon growth colonies. Vehicle-control and gentamicin are used as blank and positive controls, respectively. Each concentration is evaluated in duplicate.

Assay [2] concerns Helicobacter pylori-induced gastric ulcer. Description: Helicobacter pylori-induced gastric ulcer in mice. It counts as in vivo, male CD-1 (Crl.) derived mice. The note with it: 35 mg/kg orally for 7 days. How it is done:
Effects of samples on Helicobacter pylori-induced gastric ulcer were evaluated as described previously [Marchetti, M., Arico, B., Burroni, D., Figura, N., Rappuoli, R. and Ghiara, P. Development of a mouse model of Helicobacter pylori infection that mimics human disease. Science 267: 1655-1658, 1995.]. Groups of 5 male CD-1 (Crl.) derived mice weighing 24±2 g were fasted for 18 hours prior to intragastric inoculation of clinical isolated Helicobacter pylori in suspension at 3.2×10^9 colony formation units/0.4 ml/mouse. Test samples and vehicle (2% CMC, 10 ml/kg) were each administered orally to test animals, starting one hour after the Helicobacter pylori inoculation, dosing twice daily (10:00 am and 4:00 pm) for 7 consecutive days. Omeprazole (1 mg/kg) and clarithromycin (10 mg/kg), in combination, were used for the positive control agents and administered orally to test animal once daily for 7 consecutive days under the same schedule. […] Gastric ulceration scored at four levels according to the degree of hemorrhage and severity of ulcerative lesions: • 0=normal appearance • 1=mild red spots • 2=moderate red spots and/or hemorrhage spots • 3=marked hemorrhage spots
Percentage inhibition on Helicobacter pylori-induced gastric ulcer was calculated as follows: (Scores of vehicle group−Scores of test group)/(Scores of vehicle group)×100% The results are shown in Table 3.

Consider `CCCCC[C@H](O)CC(=O)CCc1ccc(O)c(OC)c1` [Sample 6-Gingerol, 6-Gingerol], for which the MIC in assay [1] was found to be 10 µg/mL. For the same compound, the “Percentage inhibition on Helicobacter pylori-induced gastric ulcer” value in assay [2] was determined as 25%.
On to `CCCCC/C=C/C(=O)CCc1ccc(O)c(OC)c1` [Shogaol], for which the MIC in assay [1] is 10 µg/mL.
